Structures are written as SMILES. ≈ marks a conversion by molar mass, not a printed value.

Test [1] has as its system Staphylococcus aureus. The test is described as follows: microbe, parasite or virus in culture. Conditions: ATCC 700699/Mu50, 20 h.
Description: Antibacterial activity against antibiotic intermediately resitant/methicillin resistant Staphylococcus aureus ATCC 700699/Mu50 assessed as reduction in microbial growth incubated for 20 hrs under aerobic condition by CLSI based broth microdilution method
For test [2], the system named is Escherichia coli. The test is described as follows: Antibacterial activity against Escherichia coli MC4100 harbouring lptD mutant assessed as reduction in bacterial growth by CLSI based broth microdilution method. Type of test: functional.
The test system of test [3] is Escherichia coli. In words: Antibacterial activity against Escherichia coli ATCC 25922 assessed as reduction in microbial growth incubated for 20 hrs under aerobic condition by CLSI based broth microdilution method. It is filed as functional. For orientation: Broth dilution looks for growth in wells or tubes with falling amounts of substance.
The subject of test [4] is Escherichia coli. In words: Antibacterial activity against Escherichia coli ATCC 25922 assessed as fold decrease in MIC for 20 hrs under aerobic condition by CLSI based broth microdilution method. It is filed as functional.
For test [5], the system named is Escherichia coli. The test is described as follows: Antibacterial activity against Escherichia coli MC4100 harbouring acrAB mutant assessed as reduction in bacterial growth by CLSI based broth microdilution method. Type of test: functional.
The nature of test [6]: Inhibition of Escherichia coli ATCC 25922 ATP synthase activity preincubated for 30 mins followed by NADH/ADP addition and measured after 60 mins by luciferin/luciferase luminescence assay.
The test system of test [7] is Staphylococcus aureus. In words: Antibacterial activity against Staphylococcus aureus ATCC 29213 hemB SCV assessed as reduction in microbial growth incubated for 20 hrs under aerobic condition by CLSI based broth microdilution method. It is filed as functional.
Test [8] deals with Staphylococcus aureus. The test is described as follows: Antibacterial activity against Staphylococcus aureus ATCC 29213 assessed as reduction in microbial growth incubated for 20 hrs under aerobic condition by CLSI based broth microdilution method. Type of test: functional.
For test [9], the system named is Escherichia coli. The test is described as follows: Antibacterial activity against Escherichia coli MC4100 assessed as reduction in bacterial growth by CLSI based broth microdilution method. Type of test: functional.
In test [10] the test system is Escherichia coli. The test is described as follows: Antibacterial activity against NDM1-producing carbapenem/antibiotic resistant Escherichia coli ATCC BAA-2471 assessed as reduction in microbial growth incubated for 20 hrs under aerobic condition by CLSI based broth microdilution method. It is filed as functional.
The test system of test [11] is Escherichia coli. In words: Antibacterial activity against antibiotic susceptible /colistin resistant Escherichia coli harboring mcr-1 gene assessed as reduction in microbial growth incubated for 20 hrs under aerobic condition by CLSI based broth microdilution method. It is filed as functional.
The test system of test [12] is Escherichia coli. In words: microbe, parasite or virus in culture. Conditions: 20 h.
Description: Antibacterial activity against antibiotic resistant Escherichia coli producing extended spectrum beta-lactamase KPC assessed as reduction in microbial growth incubated for 20 hrs under aerobic condition by CLSI based broth microdilution method
For test [13], the system named is Escherichia coli. In words: Antibacterial activity against antibiotic resistant Escherichia coli producing extended spectrum beta-lactamase CTX-M-15 assessed as reduction in microbial growth incubated for 20 hrs under aerobic condition by CLSI based broth microdilution method. It is filed as functional.
The test system of test [14] is Escherichia coli. The test is described as follows: Antibacterial activity against antibiotic susceptible Escherichia coli producing extended spectrum beta-lactamase CTX-M-15 assessed as reduction in microbial growth incubated for 20 hrs under aerobic condition by CLSI based broth microdilution method. Type of test: functional.
Test [15] concerns Escherichia coli. The test is described as follows: Antibacterial activity against antibiotic susceptible Escherichia coli ATCC 25922 assessed as reduction in microbial growth incubated for 20 hrs under aerobic condition by CLSI based broth microdilution method. Type of test: functional.
Test [16] deals with Staphylococcus aureus. The test is described as follows: Antibacterial activity against antibiotic resistant Staphylococcus aureus ATCC 29213 hemB SCV assessed as reduction in microbial growth incubated for 20 hrs under aerobic condition by CLSI based broth microdilution method. Type of test: functional.
Test [17] deals with Escherichia coli. The test is described as follows: Antibacterial activity against antibiotic susceptible Escherichia coli producing extended spectrum beta-lactamase KPC assessed as reduction in microbial growth incubated for 20 hrs under aerobic condition by CLSI based broth microdilution method. Type of test: functional.
For test [18], the system named is Staphylococcus aureus. The test is described as follows: Antibacterial activity against antibiotic resistant methicillin resistant Staphylococcus aureus ATCC BAA-41/USA-100 assessed as reduction in microbial growth incubated for 20 hrs under aerobic condition by CLSI based broth microdilution method. It is filed as functional.
For test [19], the system named is Staphylococcus aureus. The test is described as follows: Antibacterial activity against antibiotic resitant/methicillin resistant Staphylococcus aureus ATCC 700699/Mu50 assessed as reduction in microbial growth incubated for 20 hrs under aerobic condition by CLSI based broth microdilution method. Type of test: functional.
Test [20] has as its system Staphylococcus aureus. In words: Antibacterial activity against antibiotic susceptible Staphylococcus aureus ATCC 29213 assessed as reduction in microbial growth incubated for 20 hrs under aerobic condition by CLSI based broth microdilution method. Type of test: functional.
The subject of test [21] is Escherichia coli. In words: Antibacterial activity against antibiotic/colistin resistant Escherichia coli harboring mcr-1 gene assessed as reduction in microbial growth incubated for 20 hrs under aerobic condition by CLSI based broth microdilution method. Type of test: functional.

Compound `CN[C@H](CC(C)C)C(=O)N[C@H]1C(=O)N[C@@H](CC(N)=O)C(=O)N[C@H]2C(=O)N[C@H]3C(=O)N[C@H](C(=O)N[C@H](C(=O)O)c4cc(O)cc(O)c4-c4cc3ccc4O)[C@H](O)c3ccc(c(Cl)c3)Oc3cc2cc(c3O[C@@H]2O[C@H](CO)[C@@H](O)[C@H](O)[C@H]2O[C@H]2C[C@](C)(N)[C@H](O)[C@H](C)O2)Oc2ccc(cc2Cl)[C@H]1O` [VANCOMYCIN] registered an MIC with Staphylococcus aureus [1] of 8 µg/mL (≈ 5.52 µM).
One may read the IC50 as the point on the concentration scale where inhibition reaches its midpoint. Turning to `C[C@H]1CC[C@]2(NC1)O[C@H]1C[C@H]3[C@@H]4CC[C@H]5CC(NC[C@@H](N)Cc6ccc(I)cc6)CC[C@]5(C)[C@H]4CC[C@]3(C)[C@H]1[C@@H]2C` (mixture of isomers), the MIC in the test on Escherichia coli [2] was 2 µg/mL; in the test on Escherichia coli [3] it was 4 µg/mL; in the test with Escherichia coli [5], 4 µg/mL; in the test with Staphylococcus aureus [7], no more than 0.25 µg/mL; in the test with Staphylococcus aureus [8] it was 2 µg/mL; in the test with Escherichia coli [9] it was 8 µg/mL. Besides, the “fold change (FC)” value with Escherichia coli [4] amounted to 2. In test [6], this compound yielded an IC50 of 1500 nM.
Take `CC(C)(O/N=C(\C(=O)N[C@@H]1C(=O)N2C(C(=O)[O-])=C(C[n+]3ccccc3)CS[C@H]12)c1csc(N)n1)C(=O)O` [CEFTAZIDIME]: the MIC is greater than 32 µg/mL in the test with Escherichia coli [10]; 0.25 µg/mL with Escherichia coli [11]; greater than 32 µg/mL against Escherichia coli [12]; greater than 32 µg/mL in the test on Escherichia coli [13]; 1 µg/mL in the test on Escherichia coli [14]; 0.25 µg/mL in the test on Escherichia coli [15].
Consider `C[C@H]1CC[C@]2(NC1)O[C@H]1C[C@H]3[C@@H]4CC[C@H]5CC(NC[C@@H](N)Cc6ccncc6)CC[C@]5(C)[C@H]4CC[C@]3(C)[C@H]1[C@@H]2C` (mixture of isomers), for which the MIC in the test with Escherichia coli [2] was 16 µg/mL; in the test on Escherichia coli [3] it was greater than 128 µg/mL; in the test with Escherichia coli [5] it was 32 µg/mL; in the test on Staphylococcus aureus [8], 16 µg/mL; in the test on Escherichia coli [9] it was greater than 128 µg/mL. The same compound returned an IC50 in [6] of 1500 nM.
Turning to `C[C@H]1CC[C@]2(NC1)O[C@H]1C[C@H]3[C@@H]4CC[C@H]5CC(NC[C@@H](N)Cc6ccc(Cl)cc6)CC[C@]5(C)[C@H]4CC[C@]3(C)[C@H]1[C@@H]2C` (mixture of isomers), the MIC was 8 µg/mL with Escherichia coli [3], no more than 0.25 µg/mL with Staphylococcus aureus [7] and 2 µg/mL in the test with Staphylococcus aureus [8]. Further, the “fold change (FC)” value in the test with Escherichia coli [4] was 2.
As for `C[C@H]1CC[C@]2(NC1)O[C@H]1C[C@H]3[C@@H]4CC[C@H]5CC(NCCN6CCOCC6)CC[C@]5(C)[C@H]4CC[C@]3(C)[C@H]1[C@@H]2C` (mixture of isomers), the MIC with Escherichia coli [2] was 64 µg/mL; with Escherichia coli [3], greater than 128 µg/mL; in the test with Escherichia coli [5], 128 µg/mL; in the test on Staphylococcus aureus [8], 64 µg/mL; in the test on Escherichia coli [9], greater than 128 µg/mL. The IC50 in test [6] stood at 6500 nM.
Regarding `C[C@H]1CC[C@]2(NC1)O[C@H]1C[C@H]3[C@@H]4CC[C@H]5CC(NC[C@@H](N)Cc6ccccc6)CC[C@]5(C)[C@H]4CC[C@]3(C)[C@H]1[C@@H]2C` (mixture of isomers), the MIC with Escherichia coli [2] stood at 4 µg/mL; with Escherichia coli [3] it was 32 µg/mL; with Escherichia coli [5], 8 µg/mL; in the test with Staphylococcus aureus [8], 4 µg/mL; in the test with Escherichia coli [9] it was 32 µg/mL. Also, half-maximal inhibition in test [6] (IC50) required 1300 nM.
On to `NC[C@H]1O[C@H](O[C@H]2[C@H](O)[C@@H](O[C@H]3O[C@H](CO)[C@@H](O)[C@H](N)[C@H]3O)[C@H](N)C[C@@H]2N)[C@H](N)C[C@@H]1O` [TOBRAMYCIN], for which the MIC with Staphylococcus aureus [16] is 16 µg/mL; in the test with Escherichia coli [17], 0.5 µg/mL; in the test on Escherichia coli [10], 64 µg/mL; with Staphylococcus aureus [18], greater than 64 µg/mL; with Staphylococcus aureus [19], greater than 64 µg/mL; in the test on Staphylococcus aureus [20] it was 0.5 µg/mL. The MIC in the test with Escherichia coli [13] was 64 µg/mL; in the test on Escherichia coli [21] it was 32 µg/mL; in the test on Escherichia coli [14] it was no more than 0.03 µg/mL; with Escherichia coli [15] it was 0.24 µg/mL.
